Laboratory results from ChEMBL document CHEMBL1201862, “PubChem BioAssay data set” (2004).
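Protocol summary: plate cells (96-well), add compound at 5 concentrations, incubate 48 h, interpolate endpoints linearly. The concentration for 50% growth inhibition is given as GI50.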 Active and inactive are the calls of the source. No stated cut-off is given here; in the data, active = GI50 up to about 1.1 µM and inactive = higher.

Legend:
Experiment in all cases: NCI anticancer screen, dose series, 48 h
786-0 = tested on: 786-0
A498 = tested on: A498
A549 = tested on: A549
ACHN = tested on: ACHN
BT-549 = tested on: BT-549
CAKI-1 = tested on: CAKI-1
CCRF-CEM = tested on: CCRF-CEM
COLO 205 = tested on: COLO 205
DLD-1 = tested on: DLD-1
DMS-114 = tested on: DMS-114
DU-145 = tested on: DU-145
EKVX = tested on: EKVX
HCC 2998 = tested on: HCC 2998
HCT-116 = tested on: HCT-116
HCT-15 = tested on: HCT-15
HL-60 = tested on: HL-60
HOP-18 = tested on: HOP-18
HOP-62 = tested on: HOP-62
HOP-92 = tested on: HOP-92
HT-29 = tested on: HT-29
Hs-578T = tested on: Hs-578T
IGROV-1 = tested on: IGROV-1
K562 = tested on: K562
KM-20L2 = tested on: KM-20L2
KM12 = tested on: KM12
LOX IMVI = tested on: LOX IMVI
M14 = tested on: M14
M19-MEL = tested on: M19-MEL
MCF7 = tested on: MCF7
MDA-MB-231 = tested on: MDA-MB-231
MDA-MB-435 = tested on: MDA-MB-435
MDA-N = tested on: MDA-N
MOLT-4 = tested on: MOLT-4
Malme-3M = tested on: Malme-3M
NCI-H226 = tested on: NCI-H226
NCI-H23 = tested on: NCI-H23
NCI-H460 = tested on: NCI-H460
NCI-H522 = tested on: NCI-H522
OVCAR-3 = tested on: OVCAR-3
OVCAR-4 = tested on: OVCAR-4
OVCAR-5 = tested on: OVCAR-5
OVCAR-8 = tested on: OVCAR-8
PC-3 = tested on: PC-3
RPMI-8226 = tested on: RPMI-8226
RXF 393 = tested on: RXF 393
SF-268 = tested on: SF-268
SF-295 = tested on: SF-295
SF-539 = tested on: SF-539
SK-MEL-28 = tested on: SK-MEL-28
SK-MEL-2 = tested on: SK-MEL-2
SK-MEL-5 = tested on: SK-MEL-5
SK-OV-3 = tested on: SK-OV-3
SN12C = tested on: SN12C
SNB-19 = tested on: SNB-19
SNB-75 = tested on: SNB-75
SNB-78 = tested on: SNB-78
SR = tested on: SR
SW-620 = tested on: SW-620
T47D = tested on: T47D
TK-10 = tested on: TK-10
U-251 = tested on: U-251
UACC-257 = tested on: UACC-257
UACC-62 = tested on: UACC-62
UO-31 = tested on: UO-31
XF498 = tested on: XF498
DMS-273 = tested on: DMS-273

In the case of `N#CC(Cl)CS(=O)(=O)c1ccccc1` (stereo not drawn), the GI50 (786-0) is reported as 16.8 µM (inactive), the GI50 (A498) is reported as 13.6 µM (inactive) and the GI50 (A549) is reported as 20.1 µM (inactive). The GI50 (ACHN) was 4.41 µM (inactive), the GI50 (BT-549) was 16.7 µM (inactive) and the GI50 (CAKI-1) was 3.06 µM (inactive). The GI50 (CCRF-CEM) was 0.628 µM (active), the GI50 (COLO 205) was 1.75 µM (inactive) and the GI50 (DLD-1) was 1.93 µM (inactive). The GI50 (DMS-114) was 4.11 µM (inactive), the GI50 (DU-145) was 17.5 µM (inactive) and the GI50 (EKVX) was 18.6 µM (inactive). For the same molecule, the GI50 (HCC 2998) was 15.8 µM (inactive), the GI50 (HCT-116) was 4.34 µM (inactive) and the GI50 (HCT-15) was 2.14 µM. For the same molecule, the GI50 (HL-60) was 1.53 µM (inactive), the GI50 (HOP-18) was 8.61 µM (inactive) and the GI50 (HOP-62) was > 44.6 µM (inactive). For the same molecule, the GI50 (HOP-92) was 2.02 µM (inactive), the GI50 (HT-29) was 7.66 µM (inactive) and the GI50 (Hs-578T) was 11.8 µM (inactive). The GI50 (IGROV-1) was 16.9 µM (inactive), the GI50 (K562) was 1.97 µM (inactive) and the GI50 (KM-20L2) was 18.7 µM (inactive). For the same molecule, the GI50 (KM12) was 17.5 µM (inactive), the GI50 (LOX IMVI) was 7.14 µM (inactive) and the GI50 (M14) was 4.76 µM (inactive). The GI50 (M19-MEL) was 15.8 µM (inactive), the GI50 (MCF7) was 10.2 µM (inactive) and the GI50 (MDA-MB-231) was 19.7 µM (inactive). The GI50 (MDA-MB-435) was 17.1 µM (inactive), the GI50 (MDA-N) was 8.09 µM (inactive) and the GI50 (MOLT-4) was 1.34 µM (inactive). For the same molecule, the GI50 (Malme-3M) was 2.07 µM (inactive), the GI50 (NCI-H226) was 22.1 µM (inactive) and the GI50 (NCI-H23) was 16.3 µM (inactive). For the same molecule, the GI50 (NCI-H460) was 18.6 µM (inactive), the GI50 (NCI-H522) was 0.681 µM (active) and the GI50 (OVCAR-3) was 2.71 µM (inactive). For the same molecule, the GI50 (OVCAR-4) was 2.03 µM (inactive), the GI50 (OVCAR-5) was 20.3 µM (inactive) and the GI50 (OVCAR-8) was 6.7 µM (inactive). For the same molecule, the GI50 (PC-3) was 17.5 µM (inactive), the GI50 (RPMI-8226) was 3.32 µM (inactive) and the GI50 (RXF 393) was 2.35 µM (inactive). For the same molecule, the GI50 (SF-268) was 11 µM (inactive), the GI50 (SF-295) was 18.7 µM (inactive) and the GI50 (SF-539) was 14.9 µM (inactive). For the same molecule, the GI50 (SK-MEL-28) was 13.3 µM (inactive), the GI50 (SK-MEL-2) was 16.1 µM (inactive) and the GI50 (SK-MEL-5) was 15.8 µM (inactive). For the same molecule, the GI50 (SK-OV-3) was 19.5 µM (inactive), the GI50 (SN12C) was 16.5 µM (inactive) and the GI50 (SNB-19) was 18.9 µM (inactive). The GI50 (SNB-75) was 15.2 µM (inactive), the GI50 (SNB-78) was 21.1 µM (inactive) and the GI50 (SR) was 1.8 µM (inactive). For the same molecule, the GI50 (SW-620) was 1.68 µM (inactive), the GI50 (T47D) was 2.85 µM (inactive) and the GI50 (TK-10) was 3.7 µM (inactive). For the same molecule, the GI50 (U-251) was 19.3 µM (inactive), the GI50 (UACC-257) was 7.14 µM (inactive) and the GI50 (UACC-62) was 12.2 µM (inactive). The GI50 (UO-31) was 19.1 µM (inactive) and the GI50 (XF498) was 2.62 µM (inactive).
With `c1cncc(CSc2nc3ccccc3nc2-c2cccs2)c1` the GI50 (786-0) was 58.2 µM (inactive), the GI50 (A549) was 53.6 µM (inactive) and the GI50 (ACHN) was 36.9 µM (inactive). The GI50 (CAKI-1) was > 10 µM (inactive), the GI50 (CCRF-CEM) was 30.6 µM (inactive) and the GI50 (COLO 205) was > 100 µM (inactive). The GI50 (DLD-1) was > 100 µM (inactive), the GI50 (DMS-273) was > 100 µM (inactive) and the GI50 (EKVX) was 98.4 µM (inactive). For the same molecule, the GI50 (HCC 2998) was 86.1 µM (inactive), the GI50 (HCT-116) was > 100 µM (inactive) and the GI50 (HCT-15) was 81.1 µM. The GI50 (HL-60) was 13 µM (inactive), the GI50 (HOP-18) was > 100 µM (inactive) and the GI50 (HOP-62) was 71.3 µM (inactive). The GI50 (HT-29) was 57.1 µM (inactive), the GI50 (K562) was 39.8 µM (inactive) and the GI50 (KM12) was 48.6 µM (inactive). The GI50 (LOX IMVI) was > 100 µM (inactive), the GI50 (M14) was 92.5 µM (inactive) and the GI50 (M19-MEL) was > 100 µM (inactive). For the same molecule, the GI50 (MOLT-4) was 24.8 µM (inactive), the GI50 (Malme-3M) was 46.1 µM (inactive) and the GI50 (NCI-H226) was 70 µM (inactive). For the same molecule, the GI50 (NCI-H23) was > 100 µM (inactive), the GI50 (NCI-H460) was 56 µM (inactive) and the GI50 (NCI-H522) was 33.4 µM (inactive). For the same molecule, the GI50 (OVCAR-3) was 20.9 µM (inactive), the GI50 (OVCAR-4) was 53.6 µM (inactive) and the GI50 (OVCAR-5) was > 100 µM (inactive). For the same molecule, the GI50 (OVCAR-8) was 83.9 µM (inactive), the GI50 (RPMI-8226) was 32.8 µM (inactive) and the GI50 (SF-268) was 7.71 µM (inactive). For the same molecule, the GI50 (SF-295) was > 100 µM (inactive), the GI50 (SF-539) was 71.8 µM (inactive) and the GI50 (SK-MEL-28) was > 100 µM (inactive). For the same molecule, the GI50 (SK-MEL-2) was 87.1 µM (inactive), the GI50 (SK-MEL-5) was > 100 µM (inactive) and the GI50 (SN12C) was 77.1 µM (inactive). For the same molecule, the GI50 (SNB-19) was 77.6 µM (inactive), the GI50 (SNB-75) was > 100 µM (inactive) and the GI50 (SNB-78) was > 100 µM (inactive). For the same molecule, the GI50 (SR) was 40.9 µM (inactive), the GI50 (SW-620) was 91.4 µM (inactive) and the GI50 (TK-10) was > 100 µM (inactive). For the same molecule, the GI50 (UACC-257) was > 100 µM (inactive), the GI50 (UO-31) was 36.4 µM (inactive) and the GI50 (XF498) was 35.3 µM (inactive).
